Measurements published in ChEMBL document CHEMBL3751819, “Navigating into the chemical space between MGCD0103 and SAHA: novel histone deacetylase inhibitors as a promising lead” (Medchemcomm, 2015).
Each block holds one molecule with its values, some of them ahead of it. The source made the active and inactive calls. The calls are words filed in the database; no cut-off is given here.

What was measured:
[1] = system: HeLa; assay: Induction of apoptosis in human HeLa cells assessed as viable cells at 1.25 uM after 48 hrs by annexin-V-FITC/propidium iodide staining based flow cytometry (reference value: 88.6%); assay type: functional
[2] = system: HeLa; assay: Induction of apoptosis in human HeLa cells assessed as early apoptotic cells at 1.25 uM after 48 hrs by annexin-V-FITC/propidium iodide staining based flow cytometry (reference value: 1.4%); assay type: functional
[3] = system: HeLa; assay: Induction of apoptosis in human HeLa cells assessed as late apoptotic cells at 1.25 uM after 48 hrs by annexin-V-FITC/propidium iodide staining based flow cytometry (reference value: 9.3%); assay type: functional
[4] = system: HeLa; assay: Induction of apoptosis in human HeLa cells assessed as necrotic cells at 1.25 uM after 48 hrs by annexin-V-FITC/propidium iodide staining based flow cytometry (reference value: 0.693%); assay type: functional
[5] = system: HeLa; assay: Induction of apoptosis in human HeLa cells assessed as viable cells at 2.5 uM after 48 hrs by annexin-V-FITC/propidium iodide staining based flow cytometry (reference value: 88.6%); assay type: functional
[6] = system: HeLa; assay: Induction of apoptosis in human HeLa cells assessed as early apoptotic cells at 2.5 uM after 48 hrs by annexin-V-FITC/propidium iodide staining based flow cytometry (reference value: 1.4%); assay type: functional
[7] = system: HeLa; assay: Induction of apoptosis in human HeLa cells assessed as late apoptotic cells at 2.5 uM after 48 hrs by annexin-V-FITC/propidium iodide staining based flow cytometry (reference value: 9.3%); assay type: functional
[8] = system: HeLa; assay: Induction of apoptosis in human HeLa cells assessed as necrotic cells at 2.5 uM after 48 hrs by annexin-V-FITC/propidium iodide staining based flow cytometry (reference value: 0.693%); assay type: functional
[9] = system: HeLa; assay: Induction of apoptosis in human HeLa cells assessed as viable cells at 5 uM after 48 hrs by annexin-V-FITC/propidium iodide staining based flow cytometry (reference value: 88.6%); assay type: functional
[10] = system: HeLa; assay: Induction of apoptosis in human HeLa cells assessed as early apoptotic cells at 5 uM after 48 hrs by annexin-V-FITC/propidium iodide staining based flow cytometry (reference value: 1.4%); assay type: functional
[11] = system: HeLa; assay: Induction of apoptosis in human HeLa cells assessed as late apoptotic cells at 5 uM after 48 hrs by annexin-V-FITC/propidium iodide staining based flow cytometry (reference value: 9.3%); assay type: functional
[12] = system: HeLa; assay: Induction of apoptosis in human HeLa cells assessed as necrotic cells at 5 uM after 48 hrs by annexin-V-FITC/propidium iodide staining based flow cytometry (reference value: 0.693%); assay type: functional
[13] = Half life in artificial intestinal fluid; assay type: ADME
[14] = Half life in mouse plasma; assay type: ADME, cell-free
[15] = Half life in mouse microsomes; assay type: ADME, Microsome
[16] = system: A549; assay: Antiproliferative activity against human A549 cells assessed as reduction in cell viability after 24 hrs by MTT assay; assay type: functional, cell-based; conditions: A549, 24 h
[17] = system: A549; assay: Antiproliferative activity against human A549 cells assessed as reduction in cell viability after 48 hrs by MTT assay; assay type: functional, cell-based; conditions: A549, 48 h
[18] = system: A549; assay: Antiproliferative activity against human A549 cells assessed as reduction in cell viability after 72 hrs by MTT assay; assay type: functional, cell-based; conditions: A549, 72 h
[19] = system: HeLa; assay: Antiproliferative activity against human HeLa cells assessed as reduction in cell viability after 24 hrs by MTT assay; assay type: functional, cell-based
[20] = system: HeLa; assay: Antiproliferative activity against human HeLa cells assessed as reduction in cell viability after 48 hrs by MTT assay; assay type: functional, cell-based
[21] = system: HeLa; assay: Antiproliferative activity against human HeLa cells assessed as reduction in cell viability after 72 hrs by MTT assay; assay type: functional, cell-based
[22] = system: HepG2; assay: Antiproliferative activity against human HepG2 cells assessed as reduction in cell viability after 24 hrs by MTT assay; assay type: functional, cell-based; conditions: HepG2, 24 h
[23] = system: HepG2; assay: Antiproliferative activity against human HepG2 cells assessed as reduction in cell viability after 48 hrs by MTT assay; assay type: functional, cell-based; conditions: HepG2, 48 h
[24] = system: HepG2; assay: Antiproliferative activity against human HepG2 cells assessed as reduction in cell viability after 72 hrs by MTT assay; assay type: functional, cell-based; conditions: HepG2, 72 h
[25] = Antiproliferative activity against human HCT116 cells assessed as reduction in cell viability after 24 hrs by MTT assay; assay type: functional, cell-based; conditions: HCT-116, 24 h
[26] = Antiproliferative activity against human HCT116 cells assessed as reduction in cell viability after 48 hrs by MTT assay; assay type: functional, cell-based; conditions: HCT-116, 48 h
[27] = Antiproliferative activity against human HCT116 cells assessed as reduction in cell viability after 72 hrs by MTT assay; assay type: functional, cell-based; conditions: HCT-116, 72 h
[28] = system: MCF7; assay: Antiproliferative activity against human MCF7 cells assessed as reduction in cell viability after 24 hrs by MTT assay; assay type: functional, cell-based; conditions: MCF7, 24 h
[29] = system: MCF7; assay: Antiproliferative activity against human MCF7 cells assessed as reduction in cell viability after 48 hrs by MTT assay; assay type: functional, cell-based; conditions: MCF7, 48 h
[30] = system: MCF7; assay: Antiproliferative activity against human MCF7 cells assessed as reduction in cell viability after 72 hrs by MTT assay; assay type: functional, cell-based; conditions: MCF7, 72 h
[31] = target: T1, Protein deacetylase HDAC6 (Homo sapiens) (UniProt Q9UBN7); assay: Inhibition of HDAC6 in human A549 cells assessed as increase in acetylated tubulin expression at 5 uM incubated for 12 hrs by DAPI staining based immunofluorescence microscopy; assay type: cell-based
T1 sequence (whole entry): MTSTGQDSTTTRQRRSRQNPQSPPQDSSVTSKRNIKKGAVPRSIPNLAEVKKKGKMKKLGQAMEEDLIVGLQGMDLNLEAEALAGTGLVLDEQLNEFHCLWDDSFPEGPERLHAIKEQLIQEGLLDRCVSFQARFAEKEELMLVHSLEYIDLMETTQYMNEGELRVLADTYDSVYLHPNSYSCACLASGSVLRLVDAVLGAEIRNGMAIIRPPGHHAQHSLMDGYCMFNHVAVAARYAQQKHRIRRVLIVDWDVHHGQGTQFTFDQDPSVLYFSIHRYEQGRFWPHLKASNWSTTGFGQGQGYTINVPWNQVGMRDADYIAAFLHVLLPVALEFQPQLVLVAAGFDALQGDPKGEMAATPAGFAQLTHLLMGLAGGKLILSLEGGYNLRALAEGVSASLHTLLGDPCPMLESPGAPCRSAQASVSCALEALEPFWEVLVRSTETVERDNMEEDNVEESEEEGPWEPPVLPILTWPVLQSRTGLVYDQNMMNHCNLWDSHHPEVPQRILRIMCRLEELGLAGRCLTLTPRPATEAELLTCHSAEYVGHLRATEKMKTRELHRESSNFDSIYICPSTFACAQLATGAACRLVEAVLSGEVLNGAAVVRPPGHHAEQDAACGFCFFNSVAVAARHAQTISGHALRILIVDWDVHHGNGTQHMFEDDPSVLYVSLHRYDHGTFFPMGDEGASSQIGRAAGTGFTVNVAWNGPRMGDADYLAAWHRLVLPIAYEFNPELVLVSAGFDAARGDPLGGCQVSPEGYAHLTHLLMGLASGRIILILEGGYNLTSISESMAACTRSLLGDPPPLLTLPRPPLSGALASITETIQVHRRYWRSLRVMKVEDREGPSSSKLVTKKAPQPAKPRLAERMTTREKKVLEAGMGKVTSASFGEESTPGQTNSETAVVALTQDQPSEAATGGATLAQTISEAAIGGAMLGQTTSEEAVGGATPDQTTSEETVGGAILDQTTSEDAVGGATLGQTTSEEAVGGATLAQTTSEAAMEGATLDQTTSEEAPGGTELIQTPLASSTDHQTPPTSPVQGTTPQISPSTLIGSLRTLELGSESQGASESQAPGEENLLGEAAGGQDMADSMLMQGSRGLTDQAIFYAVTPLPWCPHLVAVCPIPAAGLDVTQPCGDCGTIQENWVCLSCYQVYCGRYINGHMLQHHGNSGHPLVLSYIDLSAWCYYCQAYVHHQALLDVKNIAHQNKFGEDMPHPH

[32] = Half life in artificial gastric fluid; assay type: ADME
[33] = Elimination half life in po dosed patient plasma by HPLC/MS analysis; assay type: ADME, organism-based; conditions: human, read-out: beta t1/2 (converted)
[34] = Homo sapiens, HeLa, 48 h, read-out: Activity

half-life [13]: > 1440 min
half-life [14]: 180 min
half-life [15]: 80 min
Compound: O=C(CCCCCCC(=O)Nc1ccccc1)NO [VORINOSTAT]
Activity [1]: 85.1%
Activity [2]: 4.1%
Activity [3]: 10.2%
Activity [4]: 0.654%
Activity [5]: 77.4%
Activity [6]: 6.56%
Activity [7]: 15.1%
Activity [8]: 0.957%
Activity [9]: 83.9%
Activity [10]: 7.84%
Activity [11]: 7.6%
Activity [12]: 0.61%

IC50 [16]: 59.9 µM
IC50 [17]: 14.6 µM
IC50 [18]: 11.9 µM
IC50 [19]: 43.8 µM
IC50 [20]: 3.32 µM
IC50 [21]: 3.42 µM
IC50 [22]: 5.79 µM
IC50 [23]: 4.05 µM
IC50 [24]: 4.25 µM
IC50 [28]: 84.2 µM
IC50 [29]: 56.8 µM
IC50 [30]: 2490 nM
inhibition [31]: inactive
half-life [32]: > 1440 min
half-life [13]: > 1440 min
half-life [14]: 600 min
half-life [15]: 157 min
half-life [33]: 540 min
Compound: Nc1ccccc1NC(=O)c1ccc(CNc2nccc(-c3cccnc3)n2)cc1 [MOCETINOSTAT]
IC50 [25]: 29.7 µM
IC50 [26]: 1240 nM
IC50 [27]: 3.51 µM
viability at 1.25 µM [1, 34]: 87.1%
Activity [2]: 3.9%
Activity [3]: 8.23%
Activity [4]: 0.78%
viability at 2.5 µM [5, 34]: 84.5%
Activity [6]: 9.13%
Activity [7]: 5.98%
Activity [8]: 0.437%
viability at 5 µM [9, 34]: 74.6%
Activity [10]: 12.5%
Activity [11]: 11.6%
Activity [12]: 1.33%
